Assay results taken from patent publication US11866430B2, “Naphthyridinone compounds useful as T cell activators” (priority 2018, dated 2024).
pIC50: −log10 of the molar value.

Tests used:
[1] = biological target: T1, human DGKζ (Homo sapiens (Human), UniProt Q13574); test: DGKζ LIPGLO assay (extruded liposome substrate); assay type: biochemical
Experimental: (§1) The DGKα and DGKζ reactions were performed using either extruded liposome (DGKα and DGKζ LIPGLO assays) or detergent/lipid micelle substrate (DGKα and DGKζ assays). The reactions were carried out in 50 mM MOPS pH 7.5, 100 mM NaCl, 10 mM MgCl2, 1 μM CaCl2, and 1 mM DTT (assay buffer). The reactions using a detergent/lipid micelle substrate also contained 50 mM octyl B-D-glucopyranoside.
(§2) A 5 mL enzyme/substrate solution at 2× final reaction concentration was prepared by combining 2.5 mL 4× enzyme solution (20 nM DGKα or DGKζ (prepared as described below) in assay buffer) and 2.5 mL of either 4× liposome or 4× detergent/lipid micelle solution (compositions described below) and incubated at room temperature for 10 minutes. Next, 1 μL 2× enzyme/substrate solution was added to wells containing the test compound and reactions were initiated with the addition of 1 μL 300 uM ATP. The reactions were allowed to proceed for 1 hr, after which 2 μL Glo Reagent (Promega V9101) was added and incubated for 40 minutes. Next, 4 μL Kinase Detection Reagent was added and incubated for 30 minutes. Luminescence was recorded using an EnVision microplate reader. […] The compounds were evaluated at 11 concentrations to determine IC50.
(§3) The PC, DAG, and PS were dissolved in chloroform, combined, and dried in vacuo to a thin film. The lipids were hydrated to 20 mM in 50 mM MOPS pH 7.5, 100 mM NaCl, 5 mM MgCl2, and were freeze-thawed five times. The lipid suspension was extruded through a 100 nm polycarbonate filter eleven times. […] The liposome preparation was stored at 4° C. for as long as four weeks.
Baculovirus amplification was achieved using infected Sf9 cells at 1:1500 virus/cell ratios, and grown for 65 hours at 27° C. post-transfection.
(§4) The expression scale up for each protein was carried out in the Cellbag 50 L WAVE-Bioreactor System 20/50 from GE Healthcare Bioscience. 12 L of 2×10^6 cells/mL Sf9 cells (Expression System, Davis, Calif.) grown in ESF921 insect medium (Expression System) were infected with virus stock at 1:200 virus/cell ratios, and grown for 66-68 hours at 27° C. post-infection. The infected cell culture was harvested by centrifugation at 2000 rpm for 20 min 4° C. in a SORVALL® RC12BP centrifuge. The cell pellets were stored at −70° C. until purification.
The cells were lysed using nitrogen cavitation method with a nitrogen bomb (Parr Instruments), and the lysates were clarified by centrifugation. […] The three steps column chromatography included nickel affinity resin capture (i.e. HisTrap FF crude, GE Healthcare), followed by size exclusion chromatography (i.e. HiLoad 26/600 Superdex 200 prep grade, GE Healthcare for DGK-alpha, and HiPrep 26/600 Sephacryl S 300_HR, GE Healthcare for DGK-zeta). The third step was ion exchange chromatography, and differed for the two isoforms. DGKα was polished using Q-Sepharose anion exchange chromatography (GE Healthcare). DGKζ was polished using SP Sepharose cation exchange chromatography (GE Healthcare). The proteins were delivered at concentrations of ≥2 mg/mL. The formulation buffers were identical for both proteins: 50 mM Hepes, pH 7.2, 500 mM NaCl, 10% v/v glycerol, 1 mM TCEP, and 0.5 mM EDTA.

[2] = biological target: T1, human DGKζ; test: DGKζ assay (detergent/lipid micelle substrate); assay type: biochemical
How it was run: (§5)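 Full-length human DGKζ (and DGKα), C-terminal His-tagged, Sf9-expressed, with phosphatidylserine/DAG micelles in 50 mM octyl glucoside; buffer 50 mM MOPS pH 7.5, 100 mM NaCl, 10 mM MgCl2, 1 μM CaCl2, 1 mM DTT.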

[3] = system: pre-activated CD4 T cells and Raji cells; test: Raji CD4 T Cell IL2 Assay; assay type: cell-based; conditions: Homo sapiens, Raji
[4] = biological target: T2, human DGKα (Homo sapiens (Human), UniProt P23743); test: biochemical; conditions: detergent/lipid micelle substrate; read-out: DGKα IC50
How it was run: as §5

[5] = biological target: T2, human DGKα; test: DGKα LIPGLO assay (extruded liposome substrate); assay type: biochemical
Experimental: as §1, with “B-D-glucopyranoside. […] The lipid substrate concentrations were […], 0.25 mM DAG, and 2.75 mM PC for the extruded liposome reactions.” for “B-D-glucopyranoside.”
as §2, with “The compound inhibition studies were carried out as follows: 50 nL droplets of each test compound (top concentration 10 mM with 11 point, 3-fold dilution series for each compound) solubilized in DMSO were transferred to wells of a white 1536 well plate (Corning 3725). A 5” for “A 5”
as §3
Human DGK-alpha-TVMV-His-pFBgate and human DCK-zeta-transcript variant-2-TVMV-His-pFBgate baculovirus samples were generated using the Bac-to-Bac baculovirus expression system (Invitrogen) according to the manufacturer's protocol. The DNA used for expression of DGK-alpha and DGK-zeta have SEQ ID NOs: 1 and 3, respectively. Baculovirus amplification was achieved using infected Sf9 cells at 1:1500 virus/cell ratios, and grown for 65 hours at 27° C. post-transfection.
as §4
Full length human DGKα and DGKζ, each expressed containing a TVMV-cleavable C-terminal Hexa-His tag sequence (SEQ ID NOs: 2 and 4, respectively) and produced as described above, were purified from Sf) baculovirus-infected insect cell paste. The cells were lysed using nitrogen cavitation method with a nitrogen bomb (Parr Instruments), and the lysates were clarified by centrifugation. […] The three steps column chromatography included nickel affinity resin capture (i.e. HisTrap FF crude, GE Healthcare), followed by size exclusion chromatography (i.e. HiLoad 26/600 Superdex 200 prep grade, GE Healthcare for DGK-alpha, and HiPrep 26/600 Sephacryl S 300_HR, GE Healthcare for DGK-zeta). The third step was ion exchange chromatography, and differed for the two isoforms.

[6] = extruded liposome substrate, read-out: DGKζ LIPGLO IC50
[7] = detergent/lipid micelle substrate, read-out: DGKζ IC50

T2 sequence (P23743 other isoform, or with tags, fused parts or gaps): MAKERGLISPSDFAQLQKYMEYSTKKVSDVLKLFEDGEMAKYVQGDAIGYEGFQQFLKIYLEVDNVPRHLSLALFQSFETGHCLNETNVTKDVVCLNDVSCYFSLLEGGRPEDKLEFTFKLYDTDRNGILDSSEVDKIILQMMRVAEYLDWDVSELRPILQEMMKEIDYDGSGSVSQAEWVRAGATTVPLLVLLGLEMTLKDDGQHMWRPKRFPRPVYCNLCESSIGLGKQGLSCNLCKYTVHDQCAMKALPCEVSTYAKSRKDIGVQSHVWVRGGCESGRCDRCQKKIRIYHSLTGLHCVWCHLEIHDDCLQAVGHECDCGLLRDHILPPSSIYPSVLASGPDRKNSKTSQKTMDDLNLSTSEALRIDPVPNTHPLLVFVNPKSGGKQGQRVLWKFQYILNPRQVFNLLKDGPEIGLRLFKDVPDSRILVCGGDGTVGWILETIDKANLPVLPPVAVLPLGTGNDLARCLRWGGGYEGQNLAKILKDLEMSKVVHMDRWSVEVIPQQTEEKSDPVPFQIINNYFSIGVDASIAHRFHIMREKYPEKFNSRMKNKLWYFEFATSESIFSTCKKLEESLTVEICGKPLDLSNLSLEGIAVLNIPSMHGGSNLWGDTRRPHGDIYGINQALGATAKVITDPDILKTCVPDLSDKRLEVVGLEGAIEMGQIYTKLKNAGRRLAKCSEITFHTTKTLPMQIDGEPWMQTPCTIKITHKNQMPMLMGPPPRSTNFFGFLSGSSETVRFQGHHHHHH
T1 sequence (Q13574 other isoform, or with tags, fused parts or gaps): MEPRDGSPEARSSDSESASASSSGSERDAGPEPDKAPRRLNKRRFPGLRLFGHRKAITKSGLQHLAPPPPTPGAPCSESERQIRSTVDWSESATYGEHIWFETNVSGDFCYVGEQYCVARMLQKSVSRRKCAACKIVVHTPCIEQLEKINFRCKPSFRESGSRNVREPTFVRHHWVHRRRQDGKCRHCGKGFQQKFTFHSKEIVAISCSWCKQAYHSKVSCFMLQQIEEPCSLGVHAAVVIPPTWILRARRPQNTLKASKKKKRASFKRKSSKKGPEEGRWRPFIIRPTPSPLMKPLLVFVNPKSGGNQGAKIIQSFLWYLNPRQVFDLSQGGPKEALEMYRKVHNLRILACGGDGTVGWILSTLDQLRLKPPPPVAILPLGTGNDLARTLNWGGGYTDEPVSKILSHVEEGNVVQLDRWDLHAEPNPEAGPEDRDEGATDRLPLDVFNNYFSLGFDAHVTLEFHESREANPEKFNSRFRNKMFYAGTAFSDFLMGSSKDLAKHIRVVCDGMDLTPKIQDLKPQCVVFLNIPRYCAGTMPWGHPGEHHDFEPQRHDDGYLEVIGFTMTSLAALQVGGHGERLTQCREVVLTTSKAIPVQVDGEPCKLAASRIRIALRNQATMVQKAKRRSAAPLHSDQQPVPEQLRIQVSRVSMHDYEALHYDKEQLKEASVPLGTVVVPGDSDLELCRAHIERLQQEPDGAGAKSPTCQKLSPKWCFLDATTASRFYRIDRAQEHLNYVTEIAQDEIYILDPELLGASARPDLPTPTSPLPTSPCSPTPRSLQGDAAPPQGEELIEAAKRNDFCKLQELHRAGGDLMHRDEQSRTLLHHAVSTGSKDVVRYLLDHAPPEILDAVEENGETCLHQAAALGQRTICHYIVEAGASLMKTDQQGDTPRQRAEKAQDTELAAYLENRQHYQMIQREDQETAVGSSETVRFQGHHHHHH

SMILES	pIC50 [1, 6]	pIC50 [2, 7]	pIC50 [3]	pIC50 [4]	pIC50 [5]	pIC50 ([1]; DGKζ LIPGLO IC50, extruded liposome substrate)	pIC50 ([2]; DGKζ IC50, detergent/lipid micelle substrate)
C#CCn1c(=O)c([N+](=O)[O-])c(N2CCN(C(c3ccc(F)cc3)c3ccccc3OC)CC2)c2nc(C#N)ccc21 (single isomer, unassigned) [Example 130, 8-(4-((4-fluorophenyl)(2-methoxyphenyl)methyl)piperazin-1-yl)-7-nitro-6-oxo-5-(prop-2-yn-1-yl)-5,6-dihydro-1,5-naphthyridine-2-carbonitrile]	6.51	5.72	7.72	4.52			
CC(c1ccc(F)cc1)N1CCN(c2c(C#N)c(=O)n(CC3CC3)c3ccc(Br)nc23)CC1 (single isomer, unassigned) [Example 163, 6-bromo-1-(cyclopropylmethyl)-4-(4-(1-(4-fluorophenyl)ethyl)piperazin-1-yl)-2-oxo-1,2-dihydro-1,5-naphthyridine-3-carbonitrile]				< 3.62	3.96	3.96	< 3.62
Cn1c(=O)c([N+](=O)[O-])c(N2CCN(Cc3cccc4ccccc34)CC2)c2nc(Br)ccc21 [Example 55, 6-bromo-1-methyl-4-(4-(naphthalen-1-ylmethyl)piperazin-1-yl)-3-nitro-1,5-naphthyridin-2(1H)-one]	5.74		7.42		6.72		
COc1ccc2c(n1)c(N1CCN(C(c3ccc(F)cc3)c3ccc(F)cc3)CC1)c(C#N)c(=O)n2C [Example 103, 4-(4-(bis(4-fluorophenyl)methyl)piperazin-1-yl)-6-methoxy-1-methyl-2-oxo-1,2-dihydro-1,5-naphthyridine-3-carbonitrile]	6.00		6.40		5.21		
C#CCn1c(=O)c([N+](=O)[O-])c(N2CCN(C(c3ccccc3)c3ccccc3)CC2)c2ncccc21 [Example 165, 4-(4-benzhydrylpiperazin-1-yl)-3-nitro-1-(prop-2-yn-1-yl)-1,5-naphthyridin-2(1H)-one]	5.39	4.04		5.47	5.55		
Cc1ccc2c(n1)c(N1CCN(C(c3ccc(F)cc3)C3CC3)CC1)c(C#N)c(=O)n2C (centres unmarked) [Example 250, 4-{4-[cyclopropyl(4-fluorophenyl)methyl]piperazin-1-yl}-1,6-dimethyl-2-oxo-1,2-dihydro-1,5-naphthyridine-3-carbonitrile]	< 3.62				5.29		
COc1ncccc1C(c1ccc(F)cc1)N1CCN(c2c(C#N)c(=O)n(C)c3ccc(C)nc23)CC1 (centres unmarked) [Example 254, 4-{4-[(4-fluorophenyl)(2-methoxypyridin-3-yl)methyl]piperazin-1-yl}-1,6-dimethyl-2-oxo-1,2-dihydro-1,5-naphthyridine-3-carbonitrile]	4.80				5.77		
COc1cccnc1C(c1ccc(F)cc1)N1CCN(c2c(C#N)c(=O)n(C)c3ccc(C)nc23)CC1 (centres unmarked) [Example 255, 4-{4-[(4-fluorophenyl)(3-methoxypyridin-2-yl)methyl]piperazin-1-yl}-1,6-dimethyl-2-oxo-1,2-dihydro-1,5-naphthyridine-3-carbonitrile]	4.68				5.85		
Cn1c(=O)c(C#N)c(N2CCN(Cc3ccc(Cl)cc3O)CC2)c2nc(Br)ccc21 [Example 266, 6-bromo-4-{4-[(4-chloro-2-hydroxyphenyl)methyl]piperazin-1-yl}-1-methyl-2-oxo-1,2-dihydro-1,5-naphthyridine-3-carbonitrile]	4.96	< 3.62	7.39	7.57			
Cn1c(=O)c(C#N)c(N2CCN(C(c3ccc(F)cc3)c3ccc(F)cc3)CC2)c2ncccc21 [Example 347, 4-{4-[bis(4-fluorophenyl)methyl]piperazin-1-yl}-1-methyl-2-oxo-1,2-dihydro-1,5-naphthyridine-3-carbonitrile]			5.92		5.59		
Cn1c(=O)c(C#N)c(N2CCN(Cc3ccc(OC(F)(F)F)cc3O)CC2)c2nc(Cl)ccc21 [Example 381, 6-chloro-4-(4-{[2-hydroxy-4-(trifluoromethoxy)phenyl]methyl}piperazin-1-yl)-1-methyl-2-oxo-1,2-dihydro-1,5-naphthyridine-3-carbonitrile]	4.57	< 3.62					
Cc1ccc(C(c2ccccc2)N2CCN(c3c(C#N)c(=O)n(C)c4ccc(C#N)nc34)CC2)cc1 (centres unmarked) [Example 408, 5-methyl-8-{4-[(4-methylphenyl)(phenyl)methyl]piperazin-1-yl}-6-oxo-5,6-dihydro-1,5-naphthyridine-2,7-dicarbonitrile]	5.96				5.05		
COc1cc(F)ccc1C(c1ccc(F)cc1OC)N1CCN(c2c(C#N)c(=O)n(C)c3ccc(C#N)nc23)CC1 [Example 409, 8-{4-[bis(4-fluoro-2-methoxyphenyl)methyl]piperazin-1-yl}-5-methyl-6-oxo-5,6-dihydro-1,5-naphthyridine-2,7-dicarbonitrile]	6.02				< 3.62		
Cc1ccc(C(c2ccccc2)N2CCN(c3c(C#N)c(=O)n(C)c4ccc(Br)nc34)CC2)cc1 (centres unmarked) [Example 431, 6-bromo-1-methyl-4-{4-[(4-methylphenyl)(phenyl)methyl]piperazin-1-yl}-2-oxo-1,2-dihydro-1,5-naphthyridine-3-carbonitrile]	5.05				5.05		
